Laboratory results from PMC5944259 (Evidence-based Complementary and Alternative Medicine : eCAM, 2018).
Like-named read-outs stand apart in the source and are kept apart here. One block for each compound: values may come before it.

What was measured:
[1] = target: T1, Acetyl-CoA carboxylase 1 (Homo sapiens, UniProt Q13085); assay: SPR assay ACC1; format: binding; conditions: for Offset / Rmax / χ^2: ACC1
T1 construct: purchased Proteintech (Shanghai)
Protocol: In the SPR test, the target proteins were first combined with the CM5 chip. After correction through standard solutions, a series of different concentrations of molecules (0, 2, 4, 8, 16, 32, 64, and 128 μmol/l) were tested for their binding to the protein. Finally, the affinity between the protein and molecule was determined by an array of parameters, such as the Kd values, Rmax, offset, and χ^2.

[2] = target: T2, Mammalian target of rapamycin (Homo sapiens, UniProt P42345); assay: Enzyme activity test mTOR (Lance ultra); format: biochemical
T2 construct: purchased Proteintech (Shanghai)
Protocol: (§1) As there were some kinase proteins in our protein database with different characteristics to other proteins, we used an enzyme activity test to validate the real interactions between the protein and molecule.
(§2) Selected pairs of protein and molecule participated in enzyme activity test, while electrophoretic mobility shirt assay (EMSA) and Lance ultra were conducted in an experiment with […] (100, 50, 25, 12.5, 6.25, 3.12, 1.56, 0.78, and 0.39 μmol/l). Finally, the IC50 (nM) value was used to assess the ability of a molecule to act or inhibit the protein.

[3] = database annotation in words, no reference given; cited from earlier work
[4] = cited from earlier work
[5] = target: T3, Protein kinase C, beta type (Homo sapiens, UniProt P05771); assay: Enzyme activity test PKC-B (EMSA); format: biochemical
T3 construct: purchased Proteintech (Shanghai)
T3 sequence (P05771 whole entry): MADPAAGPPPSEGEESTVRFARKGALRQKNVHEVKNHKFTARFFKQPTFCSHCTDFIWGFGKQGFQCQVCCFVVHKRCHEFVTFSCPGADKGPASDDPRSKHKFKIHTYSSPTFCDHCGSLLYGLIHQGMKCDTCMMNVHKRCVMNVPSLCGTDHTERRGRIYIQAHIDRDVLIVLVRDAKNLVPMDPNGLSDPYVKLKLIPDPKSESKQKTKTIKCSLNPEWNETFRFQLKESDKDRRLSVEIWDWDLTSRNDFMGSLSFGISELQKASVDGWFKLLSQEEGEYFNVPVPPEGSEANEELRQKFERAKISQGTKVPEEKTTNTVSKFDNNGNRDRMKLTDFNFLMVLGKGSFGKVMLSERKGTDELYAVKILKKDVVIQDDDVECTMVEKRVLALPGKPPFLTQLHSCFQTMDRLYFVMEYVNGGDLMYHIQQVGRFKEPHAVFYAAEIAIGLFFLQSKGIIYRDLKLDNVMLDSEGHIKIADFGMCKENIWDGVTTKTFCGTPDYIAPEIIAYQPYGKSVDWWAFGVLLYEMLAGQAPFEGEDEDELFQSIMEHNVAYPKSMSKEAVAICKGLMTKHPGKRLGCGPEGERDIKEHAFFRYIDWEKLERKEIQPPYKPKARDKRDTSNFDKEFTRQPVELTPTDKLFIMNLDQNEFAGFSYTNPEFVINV
Protocol: as §1, §2

[6] = target: T4, Rho-associated protein kinase 1 (Homo sapiens, UniProt Q13464); assay: Enzyme activity test ROCK1 (EMSA); format: biochemical
T4 construct: purchased Proteintech (Shanghai)
T4 sequence (Q13464 whole entry): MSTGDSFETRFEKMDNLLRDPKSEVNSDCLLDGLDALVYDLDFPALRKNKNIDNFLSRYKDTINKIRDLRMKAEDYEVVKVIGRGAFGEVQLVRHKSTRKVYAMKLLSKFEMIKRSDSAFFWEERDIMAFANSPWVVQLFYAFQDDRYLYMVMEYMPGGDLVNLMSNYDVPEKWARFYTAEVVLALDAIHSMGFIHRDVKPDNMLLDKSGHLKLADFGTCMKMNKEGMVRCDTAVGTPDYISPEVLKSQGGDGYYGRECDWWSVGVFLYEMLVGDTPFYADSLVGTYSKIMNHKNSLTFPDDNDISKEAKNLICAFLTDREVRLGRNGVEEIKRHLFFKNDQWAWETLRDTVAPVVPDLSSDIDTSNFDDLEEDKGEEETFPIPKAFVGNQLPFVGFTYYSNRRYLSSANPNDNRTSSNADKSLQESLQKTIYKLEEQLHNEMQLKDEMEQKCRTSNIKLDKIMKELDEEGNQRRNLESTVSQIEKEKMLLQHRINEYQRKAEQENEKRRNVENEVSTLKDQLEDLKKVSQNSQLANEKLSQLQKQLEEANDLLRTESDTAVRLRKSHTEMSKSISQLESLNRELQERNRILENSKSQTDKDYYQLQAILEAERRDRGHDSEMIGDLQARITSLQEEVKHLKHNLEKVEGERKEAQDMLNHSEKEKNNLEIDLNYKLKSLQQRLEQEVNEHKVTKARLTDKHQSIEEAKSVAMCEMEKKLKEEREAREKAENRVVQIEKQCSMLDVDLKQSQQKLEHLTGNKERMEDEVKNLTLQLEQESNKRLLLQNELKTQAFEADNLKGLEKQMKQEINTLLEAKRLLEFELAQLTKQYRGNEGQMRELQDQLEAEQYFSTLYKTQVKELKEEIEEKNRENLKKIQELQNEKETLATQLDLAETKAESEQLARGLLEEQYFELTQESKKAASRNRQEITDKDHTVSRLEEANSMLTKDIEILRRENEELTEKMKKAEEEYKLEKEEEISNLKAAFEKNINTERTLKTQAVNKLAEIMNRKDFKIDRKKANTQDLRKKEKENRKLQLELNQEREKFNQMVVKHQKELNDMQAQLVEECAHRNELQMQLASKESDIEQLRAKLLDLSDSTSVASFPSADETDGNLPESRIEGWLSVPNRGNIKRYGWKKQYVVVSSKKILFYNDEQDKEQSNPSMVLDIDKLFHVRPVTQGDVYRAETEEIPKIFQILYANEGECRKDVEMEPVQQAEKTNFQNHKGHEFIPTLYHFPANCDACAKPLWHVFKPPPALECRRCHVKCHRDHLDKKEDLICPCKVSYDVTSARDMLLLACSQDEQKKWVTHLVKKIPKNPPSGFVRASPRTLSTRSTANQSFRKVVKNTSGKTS
Protocol: as §1, §2

[7] = target: T5, Superoxide dismutase [Mn] (Homo sapiens, UniProt P04179); assay: SPR assay SOD2; format: binding
T5 construct: purchased Sino Biological (Shanghai)
T5 sequence (P04179 25-222): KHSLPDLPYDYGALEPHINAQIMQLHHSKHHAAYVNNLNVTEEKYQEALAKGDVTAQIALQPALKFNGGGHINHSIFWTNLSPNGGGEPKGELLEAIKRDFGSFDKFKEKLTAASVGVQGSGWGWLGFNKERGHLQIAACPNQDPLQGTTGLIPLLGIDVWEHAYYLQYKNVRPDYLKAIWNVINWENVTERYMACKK

[8] = database annotation in words, no reference given; cited from earlier work; remark: listed apart in the source

Compound: CC(C)(O)[C@@H]1CC[C@](C)([C@H]2[C@@H](O)C[C@@]3(C)[C@@H]4C[C@H](O[C@@H]5O[C@H](CO)[C@@H](O)[C@H](O)[C@H]5O)[C@H]5C(C)(C)[C@@H](O[C@@H]6OC[C@@H](O)[C@H](O)[C@H]6O)CC[C@@]56C[C@@]46CC[C@]23C)O1 [Astragaloside IV]
Kd [1]: 92.5 µM
Offset ([1]; SPR): 0.2424 RU
Rmax ([1]; SPR): 7.856 RU
χ^2 ([1]; SPR): 0.0243 RU^2
IC50 [2]: > 10 µM
作用药理 (pharmacological action) [3]: 诱导TNF-α分泌，降低直接作用+作用于肝糖调节酶+通过上调Sarco/内质网Ca2 + -ATP酶2的表达。抑制足细胞介导的细胞凋亡的内质网应激
absorbed in blood after the oral administration of GDC [4]: could be absorbed in blood

Offset ([1]; SPR): −0.2651 RU
Rmax ([1]; SPR): 2.204 RU
χ^2 ([1]; SPR): 0.0962 RU^2
Kd ([1]; SPR, ACC1 on CM5 chip, read-out: Kd): 13.6 µM
IC50 [5]: > 10 µM
IC50 [6]: > 10 µM
Compound: COC(=O)C1=CO[C@@H](O[C@@H]2O[C@H](CO)[C@@H](O)[C@H](O)[C@H]2O)[C@@H]2[C@H](C)O[C@@H](O)C[C@H]12 [Morroniside]
absorbed in blood after the oral administration of GDC [4]: could be absorbed in blood

Compound: C[C@@H]1O[C@@H](OC[C@H]2O[C@@H](Oc3c(-c4ccc(O)c(O)c4)oc4cc(O)cc(O)c4c3=O)[C@H](O)[C@@H](O)[C@@H]2O)[C@H](O)[C@H](O)[C@H]1O [Rutin]
absorbed in blood after the oral administration of GDC [4]: could be absorbed in blood

Offset ([7]; SOD2): −3.611 RU
Rmax ([7]; SOD2): 14.3 RU
χ^2 ([7]; SOD2): 2.11 RU^2
Kd ([7]; SOD2 on CM5 chip): 5.08 µM
Compound: COc1c(O)cc(O)c2c(=O)cc(-c3ccccc3)oc12 [Wogonin]

Compound: OC[C@H]1O[C@@H](O[C@@H]2OC=C[C@H]3[C@H](O)[C@@H]4O[C@]4(CO)[C@@H]23)[C@H](O)[C@@H](O)[C@@H]1O [catalpol / catalpinoside]
作用药理 (pharmacological action) [3]: 有降糖作用
stability remark (acid, base, high temperature) [8]: 酸碱高温下可分解，分解后变黑

Compound: COc1cc(C(=O)OCCCCNC(=N)N)cc(OC)c1O [leonurine]
作用药理 (pharmacological action) [3]: 抗血小板作用

Compound: astragalosideⅤ
作用药理 (pharmacological action) [3]: 阻碍羧甲基赖氨酸、戊糖苷形成，抑制糖尿病视网膜病变、神经病变进程

Compound: stachyose
作用药理: side effect [3]: 胀气副作用，炮制可减少水苏糖的量
